According to PMC10887108, “Novel Brain-Penetrant, Small-Molecule Tubulin Destabilizers for the Treatment of Glioblastoma” (Biomedicines, 2024):
Where two headings read alike, the source gives them in different places.

Assays:
[1] = Metabolite profiling in cryopreserved hepatocytes; assay type: in vitro ADME; conditions: mouse, rat, dog, monkey, and human hepatocytes, 120 min
Protocol: Metabolite profiling was carried out by WuXi DMPK (Nanjing, China). RGN3067 (10 μM) was profiled in CD-1 mice (BioIVT, Westbury, NY, USA), SD rats (BioIVT), beagle dogs (BioIVT), cynomolgus monkeys (Research Institute for Liver Diseases [RILD], Shanghai, China), and human cryopreserved hepatocytes (BioIVT). The positive control was 7-ethoxycoumarin (30 μM). Compounds were added to hepatocytes (400 µL, 1 × 10^6/mL), and reactions were carried out at 37 °C in 5% CO2/saturated humidity for 120 min. Reactions were stopped by the addition of ice-cold ACN (400 μL). Samples were shaken at 300 rpm for 10 min, then centrifuged at 13,000× g for 10 min. Supernatants were evaporated under a stream of N2. Residue from the RGN3067 incubation was reconstituted with ACN: H2O (200 μL, v:v, 3:7), followed by centrifugation at 14,000 rpm for 10 min, and the supernatant was used for qualitative and semi-quantitative analysis using LC-UV/HRMS. A Shimadzu UFLC-20A with autosampler was used for chromatographic separation. Detection and structure were determined using a Thermo Q-Extractive mass spectrometer in full MS/MS^2 scan mode and Xcalibur Data Acquisition and Interpretation Software v4.2.

[2] = tested on: GBM12 patient-derived xenograft; assay: Subcutaneous GBM12 PDX efficacy model; assay type: in vivo, athymic nude female mice; conditions: 100 mg/kg oral BID, 5 days on/2 days off, four cycles
Protocol: Animal protocols were approved by the Animal Care and Use Committee (ACUC) of the institutes and CRO labs. All studies were performed in compliance with the guidelines. GBM12 cells (5 × 10^6) were injected subcutaneously into athymic nude female mice aged 4–6 weeks. Subcutaneous (SC) tumor size was measured using an external caliper. The greatest longitudinal diameter (length) and the greatest transverse diameter (width) were determined while mice were scruffed and conscious. Tumor volume was calculated by the modified ellipsoidal formula: V = ½ (Length × Width^2). RGN3067 solution was prepared for each mouse. RGN3067 (9.91 mg) was dissolved in DMSO (17 µL) by vortexing for 30–60 s. Approximately 69 μL of PEG400: PVP (95:5, Sigma-Aldrich; St. Louis, MO, USA) solution was added and vortexed.
After tumors reached 100–150 mm^3, mice were dosed with RGN3067 solution (43 µL, 100 mg/kg) or vehicle control twice daily by oral gavage (total dose was 200 mg/kg). Mice were dosed using cycles of 5 days on/2 days off, for a total of four cycles. Mice were euthanized once the tumor reached 2000 mm^3.

[3] = tested on: MDR1 (P-gp); assay: MDR1-MDCK cellular permeability; assay type: in vitro ADME, canine; conditions: dog
Protocol: Cellular permeability was tested using the MDR1-MDCK (multidrug-resistant-1, Madin–Darby canine kidney) cell line. Donor solution was added to a 96-well plate (2 μL, 2 mM compound; 6 μL DMSO in 1992 μL of Hanks’ balanced salt solution [HBSS] buffer) and shaken at 1000 rpm for 10 min (final 0.4% DMSO). Transepithelial electrical resistance (TEER) values were used as a quality control check for monolayer integrity. At 3–5 days post-seeding, each MDCK II cell monolayer was tested to ensure the TEER value was ≥ 83 Ω⋅cm^2. The compound donor working solution was centrifuged (4000 rpm for 5 min) to remove any precipitated compound prior to loading donor chambers. Apical and basolateral plates were warmed at 37 °C for about 5 min prior to the initiation of transport (37 °C, 90 min).
Luciferin marker Lucifer Yellow (150 μL, 50 μM Lucifer Yellow in HBSS, pH 7.4) was added to the apical compartment, and transfer buffer (600 μL) was added to the receiver plate (basolateral compartment) and incubated at 37 °C for 60 min. Apical Lucifer Yellow concentrations for LYT0 and LYT60 were measured by a fluorometer (EX 485/EM 535 nm). Donor and receiver samples were analyzed by LC-MS. Metoprolol, enalapril, and quinidine were used as positive controls. The efflux ratio was calculated as the ratio of apparent permeability (basal-to-apical) and apparent permeability (apical-to-basal).

[4] = target: T1, Porcine tubulin (colchicine binding site) (Sus scrofa, UniProt P02554); assay: Colchicine competitive binding assay (fluorescence); conditions: compound 50 µM, colchicine 10 μM, tubulin 20 μM
T1 construct: purchased Cytoskeleton, Inc. T240; host or cells: brain tissue (purified)

[5] = tested on: colchicine binding pocket of β-tubulin in MCF-7 cells; assay: EBI competition colchicine-binding site cellular assay; assay type: cell-based, human; conditions: MCF-7, compound 50 µM
Protocol: (C) EBI competition assay in MCF-7 breast cancer cells. […] Total proteins were lysed and subjected to Western blot analysis for β-tubulin. […] GAPDH was employed as the loading control. (D) Quantification of the Western blot in (C). […] Data are plotted as mean ± SD from at least three independent experiments. Analysis between groups in (B) was performed using a one-way ANOVA with Tukey’s multiple comparison test.

[6] = tested on: U87 cells; assay: Reversibility (washout) cell viability assay; assay type: cell-based; conditions: Homo sapiens, U-87 MG
[7] = tested on: GBM12 patient-derived GB cells; assay: CellTiter-Glo viability assay, patient-derived GBM12 cells; assay type: cell-based; conditions: Homo sapiens, GBM12, 144 h, read-out: IC50 cell viability
Protocol: (§1) Short-term cultures of patient-derived cells GBM12, GBM15, GBM39 and GBM43 (used with permission Mayo Foundation) were seeded (1000 cells/well) in solid white Corning 384-well plates (Corning, NY, USA) and cultured overnight. Cells were treated with DMSO or RGN3067 in a 13-point dose response with a 1:3 serial dilution from an initial concentration of 100 μM. After 144 h, cell viability was measured using CellTiter-Glo (Promega, Madison, WI, USA). Data were normalized to DMSO control, and absolute IC50 values were calculated using GraphPad Prism 10 (San Diego, CA, USA).

[8] = tested on: GBM12, GBM15, GBM39 and GBM43 patient-derived GB cell lines; assay: CellTiter-Glo viability assay, four patient-derived GB cell lines; assay type: cell-based; conditions: Homo sapiens, 144 h, read-out: IC50 cell viability, range over four patient-derived GB cell lines
Protocol: as §1

For `CO[C@H]1C[C@@H](C(=O)NC(=O)Nc2ccc(Oc3ccc(Cl)cn3)c(C)c2)C1` [RGN3067], the “number of metabolites detected and identified” value [1] was 10, the “behavior, appearance and weight loss” value [2] was “No changes in behavior or appearance (hair and skin) or statistically significant weight loss was observed” and the “inhibition of tumor growth (tumor volume)” value ([2]; from day 14 to end of study) was “statistically significant inhibition of tumor growth”. For the same compound, the efflux ratio at 90 min, 2 µM ([3]; Papp basal-to-apical / apical-to-basal) was 0.61, the Papp at 90 min, 2 µM ([3]; read-out: apparent permeability coefficient) was 22.7 ×10⁻⁶ cm/s and the “reduction of colchicine–tubulin fluorescence relative to control” value [4] was 24%. For the same compound, the “formation of the EBI–β-tubulin adduct” value [5] was “reduces the formation of the EBI–β-tubulin adduct”, the IC50 ([6]; U87, compound left in medium, 72 h, read-out: IC50 cell viability, no-washout) was 571 nM and the IC50 ([6]; U87, compound washed out after 6 h, then 72 h, read-out: IC50 cell viability, after washout) was > 10000 nM. The IC50 [7] was 148 nM and the IC50 [8] was 148 to 616 nM.
